For one experiment, the target named is T1, CDK8/CycC (Homo sapiens, UniProt P49336).
T1 construct: purchased ProQinase GmbH, Freiburg, Germany
The experiment in a line: Radiometric protein kinase assay (33PanQinase Activity Assay, ProQinase). In kind it is biochemical. The settings on record: 1.0 μM ATP, 1.0 μg/50 μL substrate RBER-IRStide, duplicate measurements, read-out: CDK8 Kinase inhibition IC50. How it is done: The kinase activity of CDK8/CycC was measured using a radiometric protein kinase assay (33PanQinase® Activity Assay) by ProQinase GmbH, Freiburg, Germany, with the protocols shown at www.proqinase.com/sites/default/files/public/uploads/WildtypeProfiler/radiometric_assay_v05_2012_manual.pdf. IC50 determination (8.3 nM with 1.0 μM ATP and 1.0 μg/50 μL of substrate RBER-IRStide) was performed as duplicate measurements and calculated using Quattro Workflow V3.1.1 (Quattro Research GmbH, Germany). Apparent inhibition constants (Ki) values were calculated from Km (ATP) and IC50 values for the respective kinases.

The subject of another experiment is MV-4-11. Briefly: Cell viability assay (resazurin, leukemia cell lines), 72 h growth inhibition. In kind it is cell-based. The settings on record: Homo sapiens, MV4-11, MV-4-11 cells. An excerpt:
Compounds from Example 1 may be subjected to a standard MTT (3-(4,5-dimethylthiazol-2-yl)-2,5-diphenyltetrazolium bromide) and resazurin assays on solid tumour cell lines and leukemia cell lines, respectively, as previously reported (Wang S et al., J Med Chem 47:1662-1675, 2004 and Diab S e al. CheMedChem 9:962-972, 2014). Compound concentrations required to inhibit 50% of cell growth (GI50) can be calculated using non-linear regression analysis.

Broadly, the IC50 is the concentration at which inhibition is half-maximal. As usually defined, the GI50 is the concentration at which growth is held to half of that of the control. A low value points to greater sensitivity of the cells.

T1 sequence (P49336 whole entry): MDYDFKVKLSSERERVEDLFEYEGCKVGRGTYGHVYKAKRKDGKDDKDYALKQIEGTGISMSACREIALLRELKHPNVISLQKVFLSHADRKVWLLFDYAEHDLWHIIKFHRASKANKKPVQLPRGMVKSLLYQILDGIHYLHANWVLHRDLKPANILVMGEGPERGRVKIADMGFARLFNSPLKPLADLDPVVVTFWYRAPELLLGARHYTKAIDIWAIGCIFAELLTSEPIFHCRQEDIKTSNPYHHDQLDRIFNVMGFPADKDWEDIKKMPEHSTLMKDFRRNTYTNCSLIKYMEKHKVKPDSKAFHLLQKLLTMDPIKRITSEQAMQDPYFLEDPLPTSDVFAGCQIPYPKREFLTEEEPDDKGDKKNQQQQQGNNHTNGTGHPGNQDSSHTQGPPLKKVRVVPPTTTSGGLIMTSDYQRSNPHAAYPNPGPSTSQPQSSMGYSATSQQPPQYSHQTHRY
T1 sequence (P24863 whole entry partner): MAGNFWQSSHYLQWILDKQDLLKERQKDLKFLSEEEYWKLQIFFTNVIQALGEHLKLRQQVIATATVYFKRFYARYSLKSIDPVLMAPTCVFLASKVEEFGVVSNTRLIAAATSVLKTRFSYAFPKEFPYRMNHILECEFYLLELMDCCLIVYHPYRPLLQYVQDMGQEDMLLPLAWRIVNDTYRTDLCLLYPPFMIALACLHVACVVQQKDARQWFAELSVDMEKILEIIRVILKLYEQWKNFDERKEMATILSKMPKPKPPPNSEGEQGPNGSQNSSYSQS

For the compound `CCN1CCN(Cc2ccc(NC(=O)Nc3nc(C)c(-c4nc(NC)ncc4C#N)s3)cc2C(F)(F)F)CC1` [Compound 72, 1-(5-(5-Cyano-2-(methylamino)pyrimidin-4-yl)-4-methylthiazol-2-yl)-3-(4-((4-ethylpiperazin-1-yl)methyl)-3-(trifluoromethyl)phenyl)urea], the half-maximal inhibitory concentration (IC50) on CDK8/CycC turned out to be 64 nM. Also, the 50% growth inhibitory concentration (GI50) in the experiment with MV-4-11 is 432 ± 10 nM.

On to `CNc1ncc(Cl)c(-c2sc(NC(=O)Nc3ccc(CN4CCN(C(C)=O)CC4)c(C(F)(F)F)c3)nc2C)n1` [Compound 68, 1-(4-((4-Acetylpiperazin-1-yl)methyl)-3-(trifluoromethyl)phenyl)-3-(5-(5-chloro-2-(methylamino)pyrimidin-4-yl)-4-methylthiazol-2-yl)urea], for which, at CDK8/CycC, the IC50 came out at 80 nM. Also, in the experiment on MV-4-11, the concentration for 50% growth inhibition (GI50) was determined as 4250 ± 420 nM.

Regarding `CNc1ncc(C#N)c(-c2sc(NC(=O)Nc3ccc(CN4CCN(S(C)(=O)=O)CC4)c(C(F)(F)F)c3)nc2C)n1` [Compound 74, 1-(5-(5-Cyano-2-(methylamino)pyrimidin-4-yl)-4-methylthiazol-2-yl)-3-(4-((4-(methylsulfonyl)piperazin-1-yl)methyl)-3-(trifluoromethyl)phenyl)urea], on CDK8/CycC, the IC50 amounted to 272 nM. Also, growth in the experiment on MV-4-11 was halved (GI50) at 3250 ± 350 nM.

On to `CCNc1nccc(-c2sc(NC(=O)Nc3ccc(CN4CCN(CC)CC4)c(C(F)(F)F)c3)nc2C)n1` [Compound 53, 1-(5-(2-(Ethylamino)pyrimidin-4-yl)-4-methylthiazol-2-yl)-3-(4-((4-ethylpiperazin-1-yl)methyl)-3-(trifluoromethyl)phenyl)urea], for which, on CDK8/CycC, the half-inhibitory concentration (IC50) was found to be 90 nM. The compound also registered a concentration for 50% growth inhibition (GI50) in the experiment on MV-4-11 of less than 1 nM.

As for `CCN1CCN(Cc2ccc(NC(=O)Nc3nc(C)c(-c4nc(NC)ncc4Cl)s3)cc2C(F)(F)F)CC1` [Compound 66, 1-(5-(5-Chloro-2-(methylamino)pyrimidin-4-yl)-4-methylthiazol-2-yl)-3-(4-((4-ethylpiperazin-1-yl)methyl)-3-(trifluoromethyl)phenyl)urea], the IC50 on CDK8/CycC was 21 nM. Halving of growth in the experiment with MV-4-11 (GI50) required 73 ± 30 nM.

For `CCNc1nccc(-c2sc(NC(=O)Nc3ccc(CN4CCOCC4)c(C(F)(F)F)c3)nc2C)n1` [Compound 56, 1-(5-(2-(Ethylamino)pyrimidin-4-yl)-4-methylthiazol-2-yl)-3-(4-(morpholinomethyl)-3-(trifluoromethyl)phenyl)urea], at CDK8/CycC, the IC50 stood at 21 nM. This compound returned a 50% growth inhibitory concentration (GI50) with MV-4-11 of 529 ± 120 nM.

Consider `CNc1ncc(Cl)c(-c2sc(NC(=O)Nc3ccc(CN4CCN(S(C)(=O)=O)CC4)c(C(F)(F)F)c3)nc2C)n1` [Compound 69, 1-(5-(5-Chloro-2-(methylamino)pyrimidin-4-yl)-4-methylthiazol-2-yl)-3-(4-((4-(methylsulfonyl)piperazin-1-yl)methyl)-3-(trifluoromethyl)phenyl)urea], for which the IC50 on CDK8/CycC was found to be 132 nM. In the experiment with MV-4-11, this compound came in with a 50% growth inhibitory concentration (GI50) of 4690 ± 420 nM.

Consider `CNc1ncc(Cl)c(-c2sc(NC(=O)Nc3ccc(CN4CCN(C(C)C)CC4)c(C(F)(F)F)c3)nc2C)n1` [Compound 67, 1-(5-(5-Chloro-2-(methylamino)pyrimidin-4-yl)-4-methylthiazol-2-yl)-3-(4-((4-isopropylpiperazin-1-yl)methyl)-3-(trifluoromethyl)phenyl)urea], for which, at CDK8/CycC, the IC50 was found to be 30 nM. In the experiment on MV-4-11, this compound displayed a GI50 of 174 ± 10 nM.

Consider `CNc1nccc(-c2sc(NC(=O)Nc3ccc(F)cc3C(F)(F)F)nc2C)n1` [Compound 7, 1-(4-fluoro-2-(trifluoromethyl)-phenyl)-3-(4-methyl-5-(2-(methylamino)-pyrimidin-4-yl)thiazol-2-yl)urea], for which the IC50 on CDK8/CycC was 2300 nM.

With `Cc1nc(NC(=O)Nc2ccc(CN3CCOCC3)c(C(F)(F)F)c2)sc1-c1ccnc(C(C)C)n1` [Compound 79, 1-(5-(2-Isopropylpyrimidin-4-yl)-4-methylthiazol-2-yl)-3-(4-(morpholinomethyl)-3-(trifluoromethyl)phenyl)urea], at CDK8/CycC, the 50% inhibitory concentration (IC50) was 206 nM. The compound further displayed a GI50 in the experiment with MV-4-11 of 998 ± 60 nM.

Regarding `CCNc1nccc(-c2sc(NC(=O)Nc3ccc(CN4CCC(C)CC4)c(C(F)(F)F)c3)nc2C)n1` [Compound 57, 1-(5-(2-(Ethylamino)pyrimidin-4-yl)-4-methylthiazol-2-yl)-3-(4-((4-methylpiperidin-1-yl)methyl)-3-(trifluoromethyl)phenyl)urea], at CDK8/CycC, the IC50 turned out to be 49 nM. The compound further gave a 50% growth inhibitory concentration (GI50) with MV-4-11 of 6160 ± 140 nM.

Regarding `CCNc1nccc(-c2sc(NC(=O)Nc3ccc(CN4CCN(C)CC4)c(C(F)(F)F)c3)nc2C)n1` [Compound 52, 1-(5-(2-(Ethylamino)pyrimidin-4-yl)-4-methylthiazol-2-yl)-3-(4-((4-methylpiperazin-1-yl)methyl)-3-(trifluoromethyl)phenyl)urea], the IC50 on CDK8/CycC stood at 15 nM. The compound further registered a GI50 with MV-4-11 of less than 1 nM.

Regarding `CNc1nccc(-c2cnc(NC(=O)Nc3ccc(CN4CCN(C(C)C)CC4)c(C(F)(F)F)c3)s2)n1` [Compound 60, 1-(4-((4-Isopropylpiperazin-1-yl)methyl)-3-(trifluoromethyl)phenyl)-3-(5-(2-(methylamino)pyrimidin-4-yl)thiazol-2-yl)urea], the IC50 at CDK8/CycC was determined as 16 nM. The 50% growth inhibitory concentration (GI50) with MV-4-11 is 7 nM.

Regarding `CSc1nccc(-c2sc(NC(=O)Nc3ccc(CN4CCOCC4)c(C(F)(F)F)c3)nc2C)n1` [Compound 83, 1-(4-Methyl-5-(2-(methylthio)pyrimidin-4-yl)thiazol-2-yl)-3-(4-(morpholinomethyl)-3-(trifluoromethyl)phenyl)urea], at CDK8/CycC, the IC50 was 121 nM. The concentration for 50% growth inhibition (GI50) with MV-4-11 was found to be 1560 ± 100 nM.

Take `CNc1nccc(-c2sc(NC(=O)Nc3ccccc3C(F)(F)F)nc2C)n1` [Compound 2, 1-(4-Methyl-5-(2-(methylamino)-pyrimidin-4-yl)thiazol-2-yl)-3-(2-(trifluoromethyl)phenyl)urea]: on CDK8/CycC, the IC50 was determined as 1360 nM.

Take `CNc1ncc(C#N)c(-c2sc(NC(=O)Nc3ccc(CN4CCOCC4)c(C(F)(F)F)c3)nc2C)n1` [Compound 75, 1-(5-(5-Cyano-2-(methylamino)pyrimidin-4-yl)-4-methylthiazol-2-yl)-3-(4-(morpholinomethyl)-3-(trifluoromethyl)phenyl)urea]: the IC50 at CDK8/CycC amounted to 82 nM. In the experiment on MV-4-11, this compound registered a GI50 of 3420 ± 230 nM.

As for `CNc1nccc(-c2sc(NC(=O)Nc3ccc(CN4CCN(S(C)(=O)=O)CC4)c(C(F)(F)F)c3)nc2C)n1` [Compound 36, 1-(4-Methyl-5-(2-(methylamino)-pyrimidin-4-yl)thiazol-2-yl)-3-(4-((4-(methylsulfonyl)piperazin-1-yl)methyl)-3-(trifluoromethyl)-phenyl)urea], the IC50 on CDK8/CycC turned out to be 32 nM. In the experiment with MV-4-11, this compound had a GI50 of 76 ± 10 nM.

In the experiment with MV-4-11, `CNc1nccc(-c2sc(NC(=O)Nc3ccc(CN4CCCCC4)c(C(F)(F)F)c3)nc2C)n1` [Compound 38, 1-(4-Methyl-5-(2-(methylamino)-pyrimidin-4-yl)thiazol-2-yl)-3-(4-(piperidin-1-ylmethyl)-3-(trifluoromethyl)phenyl)urea] had a GI50 of 994 ± 130 nM.

As for `Cc1nc(NC(=O)Nc2ccc(CN3CCN(C(C)C)CC3)c(C(F)(F)F)c2)sc1-c1ccnc(N)n1` [Compound 63, 1-(5-(2-Aminopyrimidin-4-yl)-4-methylthiazol-2-yl)-3-(4-((4-isopropylpiperazin-1-yl)methyl)-3-(trifluoromethyl)phenyl)urea], at CDK8/CycC, the IC50 stood at 13 nM. The compound also displayed a concentration for 50% growth inhibition (GI50) in the experiment with MV-4-11 of 3 nM.

For `CCNc1nccc(-c2sc(NC(=O)Nc3ccc(CN4CCN(C(C)C)CC4)c(C(F)(F)F)c3)nc2C)n1` [Compound 54, 1-(5-(2-(ethylamino)pyrimidin-4-yl)-4-methylthiazol-2-yl)-3-(4-((4-isopropylpiperazin-1-yl)methyl)-3-(trifluoromethyl)phenyl)urea], on CDK8/CycC, the IC50 worked out at 16 nM. In the experiment with MV-4-11, this compound had a concentration for 50% growth inhibition (GI50) of less than 1 nM.

As to `CC(=O)N1CCN(Cc2ccc(NC(=O)Nc3nc(C)c(-c4ccnc(C(C)C)n4)s3)cc2C(F)(F)F)CC1` [Compound 77, 1-(4-((4-Acetylpiperazin-1-yl)methyl)-3-(trifluoromethyl)phenyl)-3-(5-(2-isopropylpyrimidin-4-yl)-4-methylthiazol-2-yl)urea], the half-maximal inhibitory concentration (IC50) at CDK8/CycC is 169 nM. Moreover, growth in the experiment on MV-4-11 was halved (GI50) at 712 ± 20 nM.

Consider `CNc1ncc(C#N)c(-c2sc(NC(=O)Nc3ccc(CN4CCN(C(C)C)CC4)c(C(F)(F)F)c3)nc2C)n1` [Compound 73, 1-(5-(5-Cyano-2-(methylamino)pyrimidin-4-yl)-4-methylthiazol-2-yl)-3-(4-((4-isopropylpiperazin-1-yl)methyl)-3-(trifluoromethyl)phenyl)urea], for which the concentration for half-maximal inhibition (IC50) at CDK8/CycC came to 59 nM. In addition, the concentration for 50% growth inhibition (GI50) in the experiment on MV-4-11 was 482 ± 30 nM.

`CNc1nccc(-c2sc(NC(=O)Nc3ccc(C(F)(F)F)cc3)nc2C)n1` [Compound 41, 1-(4-Methyl-5-(2-(methylamino)pyrimidin-4-yl)thiazol-2-yl)-3-(4-(trifluoromethyl)phenyl)urea]: the half-inhibitory concentration (IC50) at CDK8/CycC came to 19 nM.

On to `CNc1nccc(-c2sc(NC(=O)Nc3ccc(F)cc3C)nc2C)n1` [Compound 6, 1-(4-Fluoro-2-methylphenyl)-3-(4-methyl-5-(2-(methylamino)-pyrimidin-4-yl)thiazol-2-yl)urea], for which the IC50 at CDK8/CycC came out at 233 nM.

With `CNc1nccc(-c2sc(NC(=O)Nc3ccc(C(F)(F)F)cc3C(F)(F)F)nc2C)n1` [Compound 8, 1-(2,4-Bis(trifluoromethyl)phenyl)-3-(4-methyl-5-(2-(methylamino)-pyrimidin-4-yl)thiazol-2-yl)urea], the IC50 at CDK8/CycC came out at 65 nM.
